Here are results for 18 compounds from paper PMC3905461 (Chembiochem : a European journal of chemical biology, 2013).

Values joined by “and” are separate entries in the source; they are usually repeats but may differ in a detail not shown here. Equal entries are not always repeated.

In assay [1] the target is T1, RpaR (Rhodopseudomonas palustris, UniProt Q6NCZ5). In words: RpaR agonism reporter gene assay. The settings on record: for EC50: EC50 value, dose response in R. palustris CGA814 reporter; for activation at 1 µM: read-out: Percent activation; for Drop in agonistic activity relative to 1: compared with 2-fluoro cinnamoyl HL 1; for Percent activation: 1 μM synthetic ligand, relative to p-cAHL at 1 μM, triplicate of triplicate, error < ±10%. It is filed as cell-based.

For assay [2], the target named is T1, RpaR. The settings on record: extracts from wild-type R. palustris grown with the aromatic acid; cited from earlier work.
The subject of a further assay is LuxR. The note with it: V. fischeri LuxR; ref 7j, 7l; cited from earlier work.
For assay [3], the system named is other LuxR-type receptors. The settings on record: ref 7j; cited from earlier work.
The target of assay [4] is T1, RpaR. The experiment in a line: Competitive RpaR antagonism reporter gene assay against p-cAHL. It is filed as cell-based. The settings on record: for Percent inhibition: 1 μM synthetic ligand against p-cAHL at its EC50 value (1 nM), negative values indicate agonistic responses, error < ±10%.

T1 sequence (Q6NCZ5 whole entry): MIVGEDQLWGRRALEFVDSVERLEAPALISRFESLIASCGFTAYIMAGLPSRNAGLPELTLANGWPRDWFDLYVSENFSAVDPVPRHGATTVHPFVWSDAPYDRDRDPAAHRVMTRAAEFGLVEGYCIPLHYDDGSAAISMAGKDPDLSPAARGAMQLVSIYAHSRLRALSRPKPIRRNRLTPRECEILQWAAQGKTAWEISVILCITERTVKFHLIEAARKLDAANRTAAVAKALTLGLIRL

Turning to `O=C(/C=C/c1ccccc1F)N[C@H]1CCOC1=O` [Compound 1, 2-fluoro cinnamoyl HL], at RpaR [1], the 50% effective concentration (EC50) turned out to be 3.4 nM and the activation at 1 µM amounted to 99%.

As to `O=C(/C=C/c1cccc(F)c1)N[C@H]1CCOC1=O` [Compound 2], on RpaR [1], the EC50 was found to be 65.6 nM, the “Drop in agonistic activity relative to 1” value is 20 fold and the activation at 1 µM stood at 84%.

Take `O=C(/C=C/c1ccc(F)cc1)N[C@H]1CCOC1=O` [Compound 3, 4-fluoro cinnamoyl HL]: on RpaR [1] (1 μM), the “Agonistic activity at 1 μM” value was “inactive”. The compound further gave a Percent activation at RpaR [1] of 1%.

Regarding `O=C(/C=C/c1c(F)cccc1F)N[C@H]1CCOC1=O` [Compound 4, 2,6-difluoro cinnamoyl HL], at RpaR [1], the EC50 stood at 4.8 nM and the activation at 1 µM was 101%.

`O=C(/C=C/c1ccccc1Br)N[C@H]1CCOC1=O` [Compound 10, 2-bromo cinnamoyl HL]: on RpaR [1], the midpoint of the response, the EC50, lay at 77.1 nM; the “Drop in agonistic activity relative to 1” value is on record as ~ 20 fold; the activation at 1 µM amounted to 118%.

With `O=C(/C=C/c1ccccc1O)N[C@H]1CCOC1=O` [Compound 15, ortho-cAHL], on RpaR [1], the response was half-maximal at 1170 nM (EC50) and the activation at 1 µM is 59%.

For the compound `O=C(/C=C/c1cccc(O)c1)N[C@H]1CCOC1=O` [Compound 16, meta-cAHL], at RpaR [1], the EC50 stood at 144 nM and the activation at 1 µM came out at 94%.

For `O=C(/C=C/c1ccc(O)c(O)c1)N[C@H]1CCOC1=O` [Compound 17, caffeoyl HL], the Percent activation on RpaR [1] was determined as 14%.

`COc1cc(C=CC(=O)NC2CCOC2=O)ccc1O` (stereo not shown) [Compound 18]: the “RpaR agonist activity” value on RpaR [2] was “inactive”.

On to `O=C(CCc1ccc(O)cc1)N[C@H]1CCOC1=O` [Compound 19], for which, at RpaR [1], the EC50 worked out at 532 nM and the activation at 1 µM is 72%. At RpaR [1] (relative to p-cAHL), the “EC50 value higher than p-cAHL” value is 500 fold.

Consider `O=C(/C=C/c1ccccc1)N[C@H]1CCOC1=O` [Compound B10, cinnamoyl HL], for which, at RpaR [1], the EC50 is 32.3 nM and the activation at 1 µM is 65%.

For the compound `O=C(CCC1CCCCC1)N[C@H]1CCOC1=O` [Compound B11, cyclohexyl HL], the “LuxR antagonism” value in the assay on LuxR is on record as “strong antagonists”.

On to `O=C(COc1ccccc1)N[C@H]1CCOC1=O` [Compound E14, POHL], for which the “Activity as agonist or antagonist in other LuxR-type receptors” value in assay [3] is “largely inactive”.

On to `O=C(COc1cccc([N+](=O)[O-])c1)N[C@H]1CCOC1=O` [Compound E25, 3-NO2 POHL], for which, in the assay with LuxR, the “LuxR antagonism” value is on record as “strong antagonists”. On RpaR [4], this compound had an IC50 of 238 nM and a Percent inhibition of 63%.

On to `O=C(CCc1ccc(F)cc1)N[C@H]1CCOC1=O` [Compound E29, 4-F PPHL], for which, in the assay with LuxR, the “LuxR antagonism” value is listed as “strong antagonists”. At RpaR [4], this compound yielded an IC50 of 300 nM and a Percent inhibition of 70%.

`O=C(CCc1ccc([N+](=O)[O-])cc1)N[C@H]1CCOC1=O` [Compound E37, 4-NO2 PPHL]: the “LuxR antagonism” value with LuxR is “strong antagonists”. Besides, on RpaR [4], the IC50 stood at 235 nM and the Percent inhibition is reported as 89%.

On to `O=C(CCc1ccc2c(c1)OCO2)N[C@H]1CCOC1=O` [Compound E39, 1,3-benzodioxole PPHL], for which, on RpaR [4], the IC50 stood at 228 nM and the Percent inhibition came to 63%.

With `O=C(/C=C/c1ccc(O)cc1)N[C@H]1CCOC1=O` [p-cAHL, p-coumaroyl HL, reference compound], the EC50 at RpaR [1] is 1 nM and ~1 nM.
